Assay results: US4863713A, “Method and system for administering therapeutic and diagnostic agents” (priority 1986, dated 1989)

How the values were obtained:
[1] = system: KHJJ adenocarcinoma tumor; experiment: Tumor imaging and biodistribution after WC3A11, clearing agent and radiolabelled chelate (Example 6); format: in vivo, Balb/c mice
Experimental: Three hours later, a whole-body scan, using computer digitation of the whole-body image, was performed on the animals.

[2] = Whole body retention of radionuclide 24 hours after antibody/chelate complex (Table 1); format: in vivo; details: WC3A11 antibody; vs less tightly bound In-TBEDTA
[3] = system: KHJJ adenocarcinoma tumor; experiment: Tumor targeting, first study: antibody complexed with L-benzyl-EDTA-111In, 24 h biodistribution; format: in vivo, Balb/C mice
Experimental: (§1) This example examines the targeting of ^111 In in animal tumors, according to the method of the invention. Balb/C mice were prepared with a KHJJ adenocarcinoma tumor implants in the flank. A hybridoma cell line designated CHA255 specific against L-benzyl-EDTA-In was prepared by methods similar to those described in Example II, using as an immunogen, an L-benzyl-EDTA-In (para-nitrophenolbenzyl-EDTA-In) group derivatized in KLH.
In a first study, a group of three mice were initially injected with 100 ug (about 0.7 nmole) of the CHA255 antibody complexed with L-benzyl-EDTA-^111 In compound. Twenty four hours later, the animals were sacrificed, and examined for ^111 In levels in the blood, tumor, and several organs which are listed in Table 3A. The radioactivity levels were calculated in terms of percent of total radioactivity per gram tissue. The average of values obtained for three mice, and standard deviations, are given to the middle column in Table 2A. Tumor/organ (T/O) ratios are shown at the right the table.

[4] = system: KHJJ adenocarcinoma tumor; experiment: Tumor targeting, second study: antibody 23 h prior to hapten, 1 h post hapten biodistribution; format: in vivo, Balb/C mice
Experimental: as §1
In a second study, the antibody alone was administered to each of three animals, and allowed to localize for 23 hours, at which time the L-benzyl-EDTA-^111 In compound was administered. One hour later the animals were sacrificed and again examined for radioactivity levels.

[5] = system: KHJJ adenocarcinoma tumor; experiment: Tumor targeting, third study: antibody, clearing agent, then hapten; 3 h post hapten biodistribution; format: in vivo, Balb/C mice
Experimental: as §1
A third study examined the degree of tumor localization achievable by an antibody, antibody clearance, and compound administration regimen carried out in accordance with the invention. The CHA255 antibody was administered to each of three animals and allowed to localize for 24 hours, at which time the antibody was cleared from the bloodstream by administration of a clearing agent consisting of transferring derivatized with L-benzyl-EDTA-In. One hour later, the L-benzyl-EDTA-^111 In compound was administered, and the animals sacrificed after an additional three hours.

[6] = Whole body retention of antibody complexes of EDTA-111In or 57Co compounds (Example 4); format: in vivo, Balb/C mice; details: WC3A11 complex
Experimental: EDTA and BABE-EDTA were complexed with ^111 In and bleomycin, with ^57 Co, as in Example 1. […] BLEDTA-IV-^111 In, a bleomycin-EDTA-In compound containing EDTA linked to bleomycin through a dithiobutane spacer, was prepared as described in co-owned patent application for "Bleomycin Conjugates and Methods". TBEDTA-^111 In was prepared as in Example 1. WC3A11 antibody complexes were formed by incubating the WC3A11 antibody from Example 2 with a selected ^111 In cpm amount of (a) ^111 -In-EDTA, (b) ^111 In-BABE-EDTA, (c) BLEDTA-II-^111 In, (d) BL-^57 Co. (e) BLEDTA-IV-^111 In, or (f) TBEDTA-^111 In.
Each of the antibody/EDTA-^111 In or ^57 Co complexes (a)-(f) was subjected intravenously to each of three Balb/C mice, in an amount between about 200-800 μg per animal. Twenty-four hours after the injection, the total body radioactivity of ^111 In was measured in a dual-probe scintillation counter. The values were averaged for the three animals. […] By contrast, the antibody complexes of compounds (e) and (f) (both of which contain a thiobutane-BABE-EDTA moiety) were retained to more than 30% after 24 hours, at an initial dose of about 180 μg antibody, and to greater than about 70% of an initial antibody dose of about 800 μg antibody.

avidin = avidin (Gallus gallus, UniProt P02701); experiment: Binding of biotinylated chelate to avidin
Source text: To illustrate a derivatization reaction used in preparing a epitopic compound, the above bifunctional chelates can be coupled to a biotin moiety, to produce of epitopic biotin chelate capable of specific, high-affinity binding to avidin. In one coupling method, a bifunctional chelate having a free-end amine is reacted with an N-hydroxysuccinamide (NHS) ester of biotin, to link the biotin to the chelate amine through an amide linkage. The chelate amine may be formed from BABE-EDTA, for example, by amination in concentrated aqueous ammonium, and the NHS biotin ester is commercially available. […] Other active agents can be biotinylated or derivatized with carbohydrate or haptenic molecules in a similar manner.

avidin, sequence (P02701 25-152): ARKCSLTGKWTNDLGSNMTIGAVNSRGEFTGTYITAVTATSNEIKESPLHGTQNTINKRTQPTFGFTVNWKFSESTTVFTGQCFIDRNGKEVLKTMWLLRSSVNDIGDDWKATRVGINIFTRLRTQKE

## O=C([O-])CN(CC(=O)[O-])CC(Cc1ccc(NC(=O)CSCCCCS)cc1)N(CC(=O)[O-])CC(=O)[O-].[Co+3] (stereo not shown) [Co-TBEDTA]
[1]; FIG. 3A, 3 hours
  whole-body scan, label localization at 3 hours (in words): localization of the label in the kidneys (K), bladder (B) and flank tumor (T)
[1]; FIG. 3B, 24 hours
  whole-body scan at 24 hours (in words): absence of label in the bladder. Good tumor imaging with low background is still achieved
[1]; Table 3, 3 hours
  tumor uptake and tumor-to-organ ratios (in words): high tumor-to-organ ratios for blood, and other internal organs
[2]
  whole body retention (in words): substantially greater retention

## O=C([O-])CN(CC(=O)[O-])CC(Cc1ccccc1)N(CC(=O)[O-])CC(=O)[O-].[111In+3] [L-benzyl-EDTA-^111 In]
[3]; 24 hours, Table 2A
  radioactivity remaining in blood and localized in tumor (in words): a large percentage of radioactivity remained in the blood, although high amounts were also tumor-localized
[3]; Hapten-Ab complex (CHA255), 24 h, blood
  24 Hr Conc, Blood: 13.41 ± 1.48 %/gm
[3]; Hapten-Ab complex (CHA255), 24 h, bone
  24 Hr Conc, Bone: 1.42 ± 0.22 %/gm
[3]; Hapten-Ab complex (CHA255), 24 h, gut
  24 Hr Conc, Gut: 2.07 ± 1.42 %/gm
[3]; Hapten-Ab complex (CHA255), 24 h, heart
  24 Hr Conc, Heart: 3.23 ± 0.48 %/gm
[3]; Hapten-Ab complex (CHA255), 24 h, kidneys
  24 Hr Conc, Kidneys: 3.73 ± 0.81 %/gm
[3]; Hapten-Ab complex (CHA255), 24 h, liver
  24 Hr Conc, Liver: 5.76 ± 0.86 %/gm
[3]; Hapten-Ab complex (CHA255), 24 h, lungs
  24 Hr Conc, Lungs: 6.50 ± 0.91 %/gm
[3]; Hapten-Ab complex (CHA255), 24 h, muscle
  24 Hr Conc, Muscle: 1.18 ± 0.16 %/gm
[3]; Hapten-Ab complex (CHA255), 24 h, skin
  24 Hr Conc, Skin: 2.35 ± 1.19 %/gm
[3]; Hapten-Ab complex (CHA255), 24 h, spleen
  24 Hr Conc, Spleen: 2.50 ± 0.37 %/gm
[3]; Hapten-Ab complex (CHA255), 24 h, tumor
  24 Hr Conc, Tumor: 11.26 ± 1.40 %/gm
[3]; Hapten-Ab complex, 24 h, tumor/blood
  T/O Ratio, Blood: 0.8
[3]; Hapten-Ab complex, 24 h, tumor/bone
  T/O Ratio, Bone: 8.0
[3]; Hapten-Ab complex, 24 h, tumor/gut
  T/O Ratio, Gut: 7.4
[3]; Hapten-Ab complex, 24 h, tumor/heart
  T/O Ratio, Heart: 3.5
[3]; Hapten-Ab complex, 24 h, tumor/kidneys
  T/O Ratio, Kidneys: 3.1
[3]; Hapten-Ab complex, 24 h, tumor/liver
  T/O Ratio, Liver: 2.0
[3]; Hapten-Ab complex, 24 h, tumor/lungs
  T/O Ratio, Lungs: 1.7
[3]; Hapten-Ab complex, 24 h, tumor/muscle
  T/O Ratio, Muscle: 9.6
[3]; Hapten-Ab complex, 24 h, tumor/skin
  T/O Ratio, Skin: 5.7
[3]; Hapten-Ab complex, 24 h, tumor/spleen
  T/O Ratio, Spleen: 4.5
[4]; Ab 23 Hr prior to hapten, 1 h, blood
  Conc 1 Hr Post Hapten, Blood: 24.01 ± 0.80 %/gm
[4]; Ab 23 Hr prior to hapten, 1 h, bone
  Conc 1 Hr Post Hapten, Bone: 1.57 ± 0.09 %/gm
[4]; Ab 23 Hr prior to hapten, 1 h, gut
  Conc 1 Hr Post Hapten, Gut: 1.51 ± 0.19 %/gm
[4]; Ab 23 Hr prior to hapten, 1 h, heart
  Conc 1 Hr Post Hapten, Heart: 5.40 ± 0.49 %/gm
[4]; Ab 23 Hr prior to hapten, 1 h, kidneys
  Conc 1 Hr Post Hapten, Kidneys: 5.87 ± 0.81 %/gm
[4]; Ab 23 Hr prior to hapten, 1 h, liver
  Conc 1 Hr Post Hapten, Liver: 6.35 ± 0.50 %/gm
[4]; Ab 23 Hr prior to hapten, 1 h, lungs
  Conc 1 Hr Post Hapten, Lungs: 9.72 ± 0.24 %/gm
[4]; Ab 23 Hr prior to hapten, 1 h, muscle
  Conc 1 Hr Post Hapten, Muscle: 1.44 ± 0.16 %/gm
[4]; Ab 23 Hr prior to hapten, 1 h, skin
  Conc 1 Hr Post Hapten, Skin: 1.60 ± 0.20 %/gm
[4]; Ab 23 Hr prior to hapten, 1 h, spleen
  Conc 1 Hr Post Hapten, Spleen: 3.03 ± 0.27 %/gm
[4]; Ab 23 Hr prior to hapten, 1 h, tumor
  Conc 1 Hr Post Hapten, Tumor: 4.08 ± 0.51 %/gm
[4]; Ab 23 Hr prior to hapten, 1 h, tumor/blood
  T/O Ratio, Blood: 0.17
[4]; Ab 23 Hr prior to hapten, 1 h, tumor/bone
  T/O Ratio, Bone: 2.59
[4]; Ab 23 Hr prior to hapten, 1 h, tumor/gut
  T/O Ratio, Gut: 2.73
[4]; Ab 23 Hr prior to hapten, 1 h, tumor/heart
  T/O Ratio, Heart: 0.76
[4]; Ab 23 Hr prior to hapten, 1 h, tumor/kidneys
  T/O Ratio, Kidneys: 0.70
[4]; Ab 23 Hr prior to hapten, 1 h, tumor/liver
  T/O Ratio, Liver: 0.64
[4]; Ab 23 Hr prior to hapten, 1 h, tumor/lungs
  T/O Ratio, Lungs: 0.42
[4]; Ab 23 Hr prior to hapten, 1 h, tumor/muscle
  T/O Ratio, Muscle: 2.84
[4]; Ab 23 Hr prior to hapten, 1 h, tumor/skin
  T/O Ratio, Skin: 2.57
[4]; Ab 23 Hr prior to hapten, 1 h, tumor/spleen
  T/O Ratio, Spleen: 1.36
[4]; compared with coadministration of antibody and In compound
  tumor uptake and tumor/organ uptake ratios (in words): lower levels of tumor uptake and lower tumor/organ uptake ratios
[5]; Ab 25 Hr, blocking agent 1 Hr prior to hapten, 3 h, blood
  Conc 3 Hrs Post Hapten, Blood: 0.95 ± 0.44 %/gm
[5]; Ab 25 Hr, blocking agent 1 Hr prior to hapten, 3 h, bone
  Conc 3 Hrs Post Hapten, Bone: 1.50 ± 0.37 %/gm
[5]; Ab 25 Hr, blocking agent 1 Hr prior to hapten, 3 h, gut
  Conc 3 Hrs Post Hapten, Gut: 2.66 ± 0.61 %/gm
[5]; Ab 25 Hr, blocking agent 1 Hr prior to hapten, 3 h, heart
  Conc 3 Hrs Post Hapten, Heart: 0.92 ± 0.29 %/gm
[5]; Ab 25 Hr, blocking agent 1 Hr prior to hapten, 3 h, kidneys
  Conc 3 Hrs Post Hapten, Kidneys: 1.10 ± 0.16 %/gm
[5]; Ab 25 Hr, blocking agent 1 Hr prior to hapten, 3 h, liver
  Conc 3 Hrs Post Hapten, Liver: 0.87 ± 0.39 %/gm
[5]; Ab 25 Hr, blocking agent 1 Hr prior to hapten, 3 h, lungs
  Conc 3 Hrs Post Hapten, Lungs: 2.55 ± 0.24 %/gm
[5]; Ab 25 Hr, blocking agent 1 Hr prior to hapten, 3 h, muscle
  Conc 3 Hrs Post Hapten, Muscle: 3.48 ± 0.77 %/gm
[5]; Ab 25 Hr, blocking agent 1 Hr prior to hapten, 3 h, skin
  Conc 3 Hrs Post Hapten, Skin: 4.86 ± 0.45 %/gm
[5]; Ab 25 Hr, blocking agent 1 Hr prior to hapten, 3 h, spleen
  Conc 3 Hrs Post Hapten, Spleen: 0.21 ± 0.04 %/gm
[5]; Ab 25 Hr, blocking agent 1 Hr prior to hapten, 3 h, tumor
  Conc 3 Hrs Post Hapten, Tumor: 7.72 ± 1.35 %/gm
[5]; after clearing agent
  In levels in blood and internal organs relative to tumor (in words): In levels in the blood and internal organs was greatly reduced relative to the levels concentrated in the tumor
[5]; blocking agent 1 Hr prior to hapten, 3 h, tumor/blood
  T/O Ratio, Blood: 9.20
[5]; blocking agent 1 Hr prior to hapten, 3 h, tumor/bone
  T/O Ratio, Bone: 5.40
[5]; blocking agent 1 Hr prior to hapten, 3 h, tumor/gut
  T/O Ratio, Gut: 2.97
[5]; blocking agent 1 Hr prior to hapten, 3 h, tumor/heart
  T/O Ratio, Heart: 8.71
[5]; blocking agent 1 Hr prior to hapten, 3 h, tumor/kidneys
  T/O Ratio, Kidneys: 7.04
[5]; blocking agent 1 Hr prior to hapten, 3 h, tumor/liver
  T/O Ratio, Liver: 10.21
[5]; blocking agent 1 Hr prior to hapten, 3 h, tumor/lungs
  T/O Ratio, Lungs: 3.02
[5]; blocking agent 1 Hr prior to hapten, 3 h, tumor/muscle
  T/O Ratio, Muscle: 2.33
[5]; blocking agent 1 Hr prior to hapten, 3 h, tumor/skin
  T/O Ratio, Skin: 1.61
[5]; blocking agent 1 Hr prior to hapten, 3 h, tumor/spleen
  T/O Ratio, Spleen: 38.03

## O=C([O-])CN(CC(=O)[O-])CC(Cc1ccc(NC(=O)CSCCCCS)cc1)N(CC(=O)[O-])CC(=O)[O-].[111In+3] (stereo not shown) [TBEDTA-^111 In]
[6]; initial dose about 180 μg antibody
  retained after 24 hours, about 180 μg antibody: more than 30%
[6]; initial dose about 800 μg antibody
  retained after 24 hours, about 800 μg antibody: greater than 70%

## O=C(O)CN(CC(=O)O)CC(Cc1ccc(NC(=O)CNC(=O)CCCC[C@@H]2SC[C@@H]3NC(=O)N[C@@H]32)cc1)N(CC(=O)O)CC(=O)O (stereo partly shown) [biotinylated glycineamidobenzyl EDTA]
avidin
  binding to avidin (in words): bind with high affinity to avidin
